Experimental data from US20020187945A1, “Modulation of immune response by ribavirin” (priority 1999, published 2002).

Tests used:
[1] = tested on: B7-1; assay: B7-1 expression by FACS in lymph node cells from DNFB-primed mice, in vitro anti-αβ TCR challenge; format: cell-based, mouse; details: C57BL/6 lymph node cells, ribavirin 5 μM, FIG. 3 bottom panel
Description: (§1) The effect of ribavirin on B7-1 expression and B7-2 expression, at the time of challenge, in lymph node cells isolated from Ag-primed BALBc and C57BL/6 mice was examined. Mice were primed epicutaneously with dinitrofluorobenzene (DNFB) 6 days prior to concomitant ribavirin treatment (5 μM) and in vitro challenge using an immobilized anti-αβ TCR antibody. Unexpectedly, we observed opposing effects of ribavirin on DNFB-induced B7-1 expression and B7-2 expression in these two mouse strains.

[2] = tested on: B7-2; assay: B7-2 expression by FACS in lymph node cells from DNFB-primed mice, in vitro anti-αβ TCR challenge; format: cell-based, mouse; details: BALB/c lymph node cells, ribavirin 5 μM, FIG. 3 top panel
Description: as §1

[3] = tested on: BALB/c and C57BL/6 mice; assay: Contact hypersensitivity (CHS) ear response to DNFB in mice; format: in vivo, mouse; details: 0.5 mg/kg i.p. at challenge, 24 hours after challenge, FIG. 4
Description: The functional effect of this differential effect on B7-1 and B7-2 mediated by RIB was examined in an in vivo murine model of contact hypersensitivity, and a B7-2 dependent immune response (Eur. J. Immunol, 1996. 26: 880-885). Briefly, animals were primed with 2,4-dinitro-1-fluorobenzene (DNFB) (0.3%) epicutaneously on the abdomen and challenged 6 days later on each ear with 0.12% DNFB. Ribavirin-treated animals were injected intraperitoneally at the time of challenge with an optimal dose of 0.5 mg/kg in 50 μl PBS. Ear measurements were taken before challenge and 24 hours after challenge. Response to DNFB was expressed as the difference between the two ear measurements. […] Ear responses in BALB/c mice were augmented following ribavirin (RIB) treatment but were impaired in ribavirin-treated C57BL/6 mice.

[4] = tested on: B7-1 mRNA; assay: B7-1 mRNA (RT-PCR/Southern) in lymph node cells of ribavirin-treated CHS mice; format: in vivo, mouse; details: FIG. 5
Description: (§2) To determine the effect of ribavirin on the functional role of B7-1 and B7-2 on contact hypersensitivity (CHS) responses, we measured B7-1 and B7-2 mRNA levels in RNA isolated from the lymph node cells of the animals used in the above CHS experiments. Following RT-PCR with specific primers, electrophoresis and Southern blotting, PCR products were analyzed by hybridization with 32P-labeled specific probes. […] In contrast, in C57BL/6 mice, B7-1 mRNA expression was enhanced by ribavirin, but B7-2 mRNA expression was unaffected.

[5] = tested on: B7-2 mRNA; assay: B7-2 mRNA (RT-PCR/Southern) in lymph node cells of ribavirin-treated CHS mice; format: in vivo, mouse; details: FIG. 5
Description: as §2

[6] = tested on: B7-1; assay: B7-1 expression by FACS in IFNα-treated splenocytes from unstimulated mice; format: cell-based, mouse; details: C57BL/6 splenocytes, with IFNα, FIG. 6 bottom panel
Excerpt: (§3) We determined the levels of […] and B7-2 by FACS analysis from IFNα-treated splenocytes from unstimulated BALB/c and C57B6 mice in order to determine whether the effect of ribavirin on the functional role of B7-1 and […] was a) inducible in resting, unstimulated lymphocytes, b) required the action of a B7 inducer such as IFNα, or c) elicited the same affects on the two mouse strains upon replacing antigen stimulation with a B7 inducer. […] In contrast, in C57BL/6 splenocytes (bottom panel), IFNα-induced B7-1 expression was enhanced by ribavirin but B7-2 expression was unaffected.

[7] = tested on: B7-2; assay: B7-2 expression by FACS in IFNα-treated splenocytes from unstimulated mice; format: cell-based, mouse; details: with IFNα
Excerpt: as §3

[8] = tested on: B7-1; assay: B7-1 mRNA (RT-PCR) in human PBMCs with B7-inducing cytokines; format: cell-based
Excerpt: (§4) The differential effect by ribavirin on B7-1 and B7-2 expression as observed in the two mouse strains was examined in human peripheral blood mononuclear cells (PBMCs). Here we used three cytokines, IFNα, IFNβ, and TNFα to induce B7-1 and B7-2 expression. […] Two distinct outcomes were observed.

[9] = tested on: B7-2; assay: B7-2 mRNA (RT-PCR) in human PBMCs with B7-inducing cytokines; format: cell-based
Excerpt: as §4

[10] = tested on: IL-10; assay: IL-10 levels in human PBMCs with B7-inducing cytokines; format: cell-based
Excerpt: as §4

[11] = tested on: TNFα; assay: TNFα levels in human PBMCs with B7-inducing cytokines; format: cell-based
Excerpt: as §4

[12] = BALB/c mice of the CHS experiment
[13] = C57BL/6 mice of the CHS experiment
[14] = 24 hour incubation with B7-inducing cytokines, FIG. 7 right hand panel (B)
[15] = 24 hour incubation with IFNα, IFNβ or TNFα, FIG. 7 left panel (A)

NC(=O)c1ncn([C@@H]2O[C@H](CO)[C@@H](O)[C@H]2O)n1 [ribavirin, 1-β-D-Ribofuranosyl-1,2,4-Triazole-3-Carboxamide]
B7-1 expression (mean channel fluorescence) [1]: enhanced B7-1 expression
B7-2 expression (mean channel fluorescence) [2]: enhanced B7-2 expression
Inflammatory ear response to DNFB ([3]; BALB/c mice): augmented
Inflammatory ear response to DNFB ([3]; C57BL/6 mice): impaired
B7-1 mRNA expression in lymph node cells [4, 12]: unaffected
B7-1 mRNA expression in lymph node cells [4, 13]: enhanced
B7-2 mRNA expression in lymph node cells [5, 12]: augmented
B7-2 mRNA expression in lymph node cells [5, 13]: unaffected
IFNα-induced B7-1 expression [6]: enhanced
IFNα-induced B7-2 expression ([7]; BALB/c splenocytes, FIG. 6 top panel): augmented
IFNα-induced B7-2 expression ([7]; C57BL/6 splenocytes, FIG. 6 bottom panel): unaffected
B7-1 expression [8, 14]: decreased B7-1 expression
B7-1 mRNA expression [8, 15]: increased
B7-2 expression [9, 14]: increased B7-2 expression
B7-2 expression [9, 15]: decreased
IL-10 levels [10, 14]: dropped
IL-10 [10, 15]: concomitant increase
TNFα levels [11, 14]: increased
TNFα [11, 15]: concomitant decrease
